Results: publication PMC3227451, “Structure-based development of novel sirtuin inhibitors” (Aging (Albany NY), 2011)
Read-outs that look alike come from different tables or passages of the source.

Assays:
Format in all cases: biochemical
[1] = target: T1, Sirt3 (Homo sapiens, UniProt Q9NTG7); test: Fluor-de-Lys peptide deacetylation assay, Sirt3
T1 construct: Sirt3 residues 114-399; His-tag with linker comprising a TEV protease cleavage site (N); made in house; host or cells: E. coli
T1 sequence (Q9NTG7 114-399): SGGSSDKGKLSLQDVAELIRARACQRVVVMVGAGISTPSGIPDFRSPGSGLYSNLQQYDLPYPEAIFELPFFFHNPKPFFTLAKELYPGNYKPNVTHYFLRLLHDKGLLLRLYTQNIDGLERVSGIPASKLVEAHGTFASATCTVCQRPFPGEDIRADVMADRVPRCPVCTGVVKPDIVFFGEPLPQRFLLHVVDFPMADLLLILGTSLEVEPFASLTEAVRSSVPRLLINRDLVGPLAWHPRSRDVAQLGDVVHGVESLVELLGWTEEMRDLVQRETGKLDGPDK
Method: (§1) Sirt3 was expressed in E. coli and purified via Ni-NTA and size exclusion chromatography as described elsewhere, and Sirt5 according to the protocol of Schuetz et al.. […] The protein was bound to the HiTrapQ column in buffer A and eluted in a gradient to buffer A supplemented with 400 mM KCl. Fractions were analyzed by SDS-PAGE, and the Sirt1 fractions were pooled and transferred into buffer A using a NAP column (GE Healthcare).
(§2) The commercial Fluor-de-Lys (FdL) assay kits 1 and 2 (Biomol, Plymouth Meeting, USA) were used to test the deacetylase activity of the four Sirtuins. In both kits the substrate derived from p53 is composed of three amino acids, the acetyl lysine and a C-terminally attached fluorophor. For Sirt2 and 3, FdL-2 peptide (QPK(acetyl-K)) was used, and FdL-1 peptide (RHK(acetyl-K)) for Sirt5 and Sirt6. All tests were done with 0.1 mM of the respective FdL peptide and 0.5 mM NAD^+ as substrates.
(§3) NCI compound stocks were prepared by dissolving them in DMSO at a concentration of 5 mM. The initial screens with all 40 compounds contained 5 μl Sirtuin solution (Sirt2/3 0.1 mg/ml stock concentration; Sirt5/6 1 mg/ml), 1 μl of compound stock (resulting in a 100 μM end concentration), 15 μl FdL substrate, and assay buffer (supplied in the assay kit) to a total volume of 50 μl. As control reactions, peptide with either the compound (without Sirtuin) or with Sirtuin and DMSO instead of compound were measured. After starting the reactions by adding the FdL substrate, assays were incubated for 30 min at 37 °C. Subsequently, 50 μl of a 10 mg/ml trypsin stock (“Developer solution”) were added and the reactions were incubated for 45 min at room temperature. Fluorescence values were measured in a fluorometric plate reader with excitation at 360 nm and read out at 485 nm. Values were then corrected with the control reaction (same compound, but without Sirtuin).
(§4) All measurements shown are averages of duplicates (screen) or triplicates (dose-response curves), and representatives of at least two independent replications. Error bars indicate standard deviations.

[2] = target: T2, Sirt5 (Homo sapiens, UniProt Q9NXA8); test: Fluor-de-Lys peptide deacetylation assay, Sirt5
T2 construct: Sirt5 residues 34-302; His-tag with linker comprising a TEV protease cleavage site (N); made in house
T2 sequence (Q9NXA8 34-302): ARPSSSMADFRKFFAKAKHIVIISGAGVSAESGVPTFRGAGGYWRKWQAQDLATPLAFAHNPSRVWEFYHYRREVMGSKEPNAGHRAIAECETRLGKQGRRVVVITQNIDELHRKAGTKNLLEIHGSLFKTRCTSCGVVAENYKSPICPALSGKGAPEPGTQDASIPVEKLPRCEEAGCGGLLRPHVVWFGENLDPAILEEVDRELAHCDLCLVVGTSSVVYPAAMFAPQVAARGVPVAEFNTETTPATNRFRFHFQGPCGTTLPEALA
Method: as §1, §2, §3, §4

[3] = target: T3, Sirt2 (Homo sapiens, UniProt Q8IXJ6); test: Fluor-de-Lys peptide deacetylation assay, Sirt2
T3 sequence (Q8IXJ6 34-356): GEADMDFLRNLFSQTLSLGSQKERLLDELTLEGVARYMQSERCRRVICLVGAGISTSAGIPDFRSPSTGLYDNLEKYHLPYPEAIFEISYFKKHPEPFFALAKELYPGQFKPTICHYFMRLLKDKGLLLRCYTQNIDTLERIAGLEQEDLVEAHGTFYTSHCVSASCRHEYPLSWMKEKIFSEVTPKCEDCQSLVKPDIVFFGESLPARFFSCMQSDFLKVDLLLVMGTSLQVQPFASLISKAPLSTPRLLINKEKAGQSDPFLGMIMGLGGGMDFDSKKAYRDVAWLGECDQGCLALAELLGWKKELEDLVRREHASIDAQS
Method: The Sirt2 construct was expressed in E. coli Rosetta2 cells (Merck) in LB/Ampicillin/Chloramphenicol medium. Cells were grown at 37 °C, and expression induced at an OD600 of 0.6-0.8 for 4 h with 0.5 mM IPTG. Harvested cells were resuspended in buffer A (50 mM Tris/HCl pH 7.8, 200 mM NaCl, 2 mM DTT), disrupted with a Sonifier, and cell debris removed by 40 min centrifugation at 4 °C, 18000 rpm in a HFA22.50 rotor. The supernatant was supplemented with 10 mM imidazole and incubated with Ni-NTA resin for 1 h at 4 °C. […] The protein was concentrated in an amicon unit (Millipore, Billerica, USA) and digested over night at 4 °C with TEV-protease. The protease was removed from cleaved Sirt2 by incubation with Ni-NTA resin for 1 h at 4 °C. The protein was concentrated, 1:5 diluted with 50 mM Tris/HCl, pH 7.8, and applied to a HiTrap Q anion exchange column (GE Healthcare) equilibrated with 50 mM Tris/HCl, pH 7.8, 50 mM NaCl, 2 mM DTT and eluted with a gradient (20 column volumes) to 50 mM Tris/HCl, pH 7.8, 1 M NaCl, 2 mM DTT. Sirt2 was then applied to a Superdex200 gel filtration column (GE Healthcare) equilibrated in 20 mM Tris/HCl, pH 7.8, 150 mM NaCl, 2 mM DTT. The eluted protein was analyzed by SDS-PAGE, re-concentrated, and shock-frozen in liquid nitrogen for storage at -80 °C.
as §2, §3, §4

[4] = target: T4, Sirt6 (Homo sapiens, UniProt Q8N6T7); test: Fluor-de-Lys peptide deacetylation assay, Sirt6
T4 construct: Sirt6 residues 13-308; His-tag with linker comprising a TEV protease cleavage site (N, cleaved yes); made in house; host or cells: E. coli Rosetta2
Method: as §2, §3, §4

[5] = 100 μM compound, 0.1 mM FdL-2 peptide, 0.5 mM NAD+
[6] = 100 μM compound, 0.1 mM FdL-1 peptide, 0.5 mM NAD+

T4 sequence (Q8N6T7 13-308): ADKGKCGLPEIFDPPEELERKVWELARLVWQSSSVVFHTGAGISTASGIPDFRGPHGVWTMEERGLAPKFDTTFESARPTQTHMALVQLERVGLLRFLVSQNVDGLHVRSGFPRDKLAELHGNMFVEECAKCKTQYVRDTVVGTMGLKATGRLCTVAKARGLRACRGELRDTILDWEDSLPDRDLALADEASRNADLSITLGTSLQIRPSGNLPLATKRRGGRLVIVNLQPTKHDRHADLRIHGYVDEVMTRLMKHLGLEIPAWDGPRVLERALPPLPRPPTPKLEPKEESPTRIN

| Compound | Effect on the activity of Sirt3 [1, 5] | Effect on the activity of Sirt5 [2, 6] | Effect on the activity of Sirt2 [3, 5] | Effect on the activity of Sirt6 [4, 6] | Effect on the activity of Sirt3 [1] | Effect on the activity of Sirt5 [2] | Effect on the activity of Sirt2 [3] | Effect on the activity of Sirt6 [4] |
| --- | --- | --- | --- | --- | --- | --- | --- | --- |
| Cc1cc(N2CCOCC2)nc2ccc(Cc3ccc4nc(N5CCOCC5)cc(C)c4c3)cc12 [CSC4, 4-methyl-6-((4-methyl-2-(4-morpholinyl)-6-quinolinyl)methyl)-2-(4-morpholinyl)quinoline] | --- (no such effect) | --- (no such effect) | inhibition (significant inhibitory effects (>25% loss of activity)) | --- (no such effect) |  |  |  |  |
| CC(C)c1ccc(C=C2C=C(c3ccc4ccccc4c3)OC2=O)cc1 [CSC9, 3-(4-isopropylbenzylidene)-5-(2-naphthyl)-2(3H)-furanone] | --- (no such effect) | activation^c | inhibition (significant inhibitory effects (>25% loss of activity)) | --- (no such effect) |  |  |  |  |
| Clc1ccc(-c2noc(CN3CCCCC3)n2)cc1 [CSC37, 1-((3-(4-chlorophenyl)-1,2,4-oxadiazol-5-yl)methyl)piperidine] | --- (no such effect) | --- (no such effect) | inhibition (significant inhibitory effects (>25% loss of activity)) | --- (no such effect) |  |  |  |  |
| O=C1c2ccccc2-c2ccc(/N=[N+](\[O-])c3ccc4c(c3)C(=O)c3ccccc3-4)cc21 [CSC3] | --- (no such effect) | --- (no such effect) | --- (no such effect) | --- (no such effect) |  |  |  |  |
| O=C1c2ccccc2C(=O)N1c1ccc(Cc2ccc(N3C(=O)c4ccccc4C3=O)cc2)cc1 [CSC20, 2-(4-(4-(1,3-dioxo-1,3-dihydro-2H-isoindol-2-yl)benzyl)phenyl)-1H-isoindole-1,3(2H)-dione] | --- (no such effect) | --- (no such effect) | --- (no such effect) | --- (no such effect) |  |  |  |  |
| O=c1c2ccccc2c2ccccc2c(=O)n1-c1cc2c3ccccc3ccc2c2ccccc12 [CSC31, 6-(6-chrysenyl)-5H-dibenzo[c,e]azepine-5,7(6H)-dione] |  |  |  |  | --- (key: inhibition: significant inhibitory effects (>25% loss of activity); ---: no such effect) | --- (key: inhibition: significant inhibitory effects (>25% loss of activity); ---: no such effect) | --- (key: inhibition: significant inhibitory effects (>25% loss of activity); ---: no such effect) | --- (key: inhibition: significant inhibitory effects (>25% loss of activity); ---: no such effect) |
| S=C(Nc1ccc2c(c1)Cc1ccccc1-2)Nc1ccc2c(c1)Cc1ccccc1-2 [CSC7, N,N'-di(9H-fluoren-2-yl)thiourea] | --- (no such effect) | --- (no such effect) | inhibition (significant inhibitory effects (>25% loss of activity)) | --- (no such effect) |  |  |  |  |
| O=C1c2ccccc2C(=O)c2c(NC(=O)c3ccc4c5c(ncnc35)-c3ccccc3C4=O)cccc21 [CSC36, N-(9,10-dioxo-9,10-dihydro-1-anthracenyl)-7-oxo-7H-benzo[e]perimidine-4-carboxamide, (Pigment Yellow 108)] | --- (no such effect) | --- (no such effect) | --- (no such effect) | --- (no such effect) |  |  |  |  |
| N=C(c1ccc2ccccc2c1)c1ccccc1Cc1ccccc1 [CSC22, (2-benzylphenyl)(2-naphthyl)methanimine] | --- (no such effect) | --- (no such effect) | inhibition (significant inhibitory effects (>25% loss of activity)) | --- (no such effect) |  |  |  |  |
| O=C1c2ccccc2C(=O)c2c1ccc(N1C(=O)c3ccccc3C1=O)c2-c1c(N2C(=O)c3ccccc3C2=O)ccc2c1C(=O)c1ccccc1C2=O [CSC27] | --- (no such effect) | --- (no such effect) | inhibition (significant inhibitory effects (>25% loss of activity)) | inhibition (significant inhibitory effects (>25% loss of activity)) |  |  |  |  |
| 7-(1-naphthyl)-7^5-dibenzo[a,j]phenazin-5-amine compound with 7-(1-naphthyl)-7^5-dibenzo[a,j]phenazine-5,9-diamine (1:1), (Sudan Red) [CSC1] | inhibition (significant inhibitory effects (>25% loss of activity)) | inhibition (significant inhibitory effects (>25% loss of activity)) | inhibition^a (significant inhibitory effects (>25% loss of activity)) | inhibition (significant inhibitory effects (>25% loss of activity)) |  |  |  |  |
| O=C1c2cc([N+](=O)[O-])ccc2-c2ccc3c4ccc5c6c(ccc(c7ccc1c2c73)c64)C(=O)c1cc([N+](=O)[O-])ccc1-5 [CSC14, 3,12bis(hydroxy(oxido)amino)anthra[9,1,2-cde]benzo[rst]pentaphene-5,10-dione, (Amanthrene Supra Black BBN)] |  |  |  |  | --- (key: inhibition: significant inhibitory effects (>25% loss of activity); ---: no such effect) | inhibition (key: inhibition: significant inhibitory effects (>25% loss of activity); ---: no such effect) | inhibition (key: inhibition: significant inhibitory effects (>25% loss of activity); ---: no such effect) | --- (key: inhibition: significant inhibitory effects (>25% loss of activity); ---: no such effect) |
